This note sets out measurements from ChEMBL document CHEMBL1159149, “Phenalene metabolites from eichhornia crassipes” (1992).

The test system of this test is Porphyridium aerugineum. Briefly: Compound at a conc of 2 umol was tested for antialgal activity against Porphyridium aerugineum in filter paper-petri dish bioassay. Format: functional.
As to `COc1cc2ccc(-c3ccccc3)c3c2c(c1OC)CCC3OC` (stereo not drawn), the Inhibition zone worked out at 25 mm.
The result for `COc1ccc2c(-c3ccccc3)cc(OC)c3c2c1CCC3OC` (stereo not drawn) reads 25 mm; that for `COc1ccc(-c2cc(OC)c3c4c(c(OC)ccc24)CCC3OC)cc1` (stereo not drawn), 25 mm.
